Structures can show the parent of a compound that is named as a salt.
What was measured:
[1] = test system: pCREB; assay: pCREB expression (western blot) in primary cultured neurons; assay type: cell-based, mice; settings: mouse primary neuro-glia culture, 4 days treatment, β-actin normalized; FIG. 14C
Experimental: (§1) To evaluate the synaptic plasticity, primary neuro-glia culture was prepared from cortices of embryonic day 16 C57/BL6 mice. Cells were collected by mechanical dissection and chemical dissociation with trypsin and DNase treatment and cultured in Neurobasal (NB) and MEM media supplemented with 1% B-27, 2 mM L-glutamine, 5% Fetal Bovine Serum, 5% Horse Serum, 1×MEM-NEAA (non-essential amino acids), and 1% Penicillin-Streptomycin (PS). Cells were cultured in Poly-D-Lysine+Laminin-coated 6-well plates at 2×10^6 cells/well in growth media. After 3 days in vitro (DIV 3), media was changed to NB media supplemented with 2% B-27, 2 mM L-glutamine, and 1% PS. […] Protein was resolved by 8% SDS-PAGE electrophoresis, transferred to polyvinylidene difluoride membranes and blocked with 5% non-fat dry milk for 1 hour at RT. Membrane was immunoblotted using following antibodies; primary antibody: PSD-95 (Abcam, ab18258, 1:2,000), phospho-CREB (Millipore, #06-519, 1:2,000), β-actin (Cell signaling, #3700, 1:3,000), and secondary antibody:HRP-conjugated anti-mouse IgG (AbFrontier, LF-SA8001, 1:5,000), HRP-conjugated anti-rabbit IgG (AbFrontier, LF-SA8002, 1:5,000). Signal was visualized by chemiluminescence methods using ECL solution and imaged using ImageQuant LAS 500 system. […]

[2] = test system: neuronal cells (SH-SY5Y); assay: ROS production (DCF-DA) in H2O2-treated SH-SY5Y cells; assay type: cell-based; settings: 100 μM H2O2 24 hours, DONE alone 5 uM, NAC alone 5 uM, NDC = DONE 2.5 uM + NAC 2.5 uM, FIG. 3
Experimental: SH-SY5Y cells were plated in 96 well plates at 2×10^5 cells/well in DMEM supplemented with 10% fetal bovine serum (FBS; YOUNG IN, US-FBS-500) and 1% penicillin-streptomycin (P-S; Gibco, 15070063). Six hours after seeding, SH-SY5Y cells were treated with 100 μM H2O2 for 24 hours (Sigma, #323381) followed by incubation with DONE alone, NAC alone, and combination of DONE and NAC. After incubation, ROS activity in the cell was measured by adding DCF-DA (Thermo, #D399) containing media. Absorbance was measured using a Synergy HTX Multi-Mode reader (Biotek) with 465 nm excitation and 540 nm emission. Measured fluorescence was normalized to control as follows: (drug-treated group OD−DCF-DA alone O.D)/(control O.D−DCF alone O.D)*100.

[3] = test system: cerebral infarction-reperfusion model in Sprague-Dawley rats; assay: Rotarod test in MCAO-reperfusion stroke model; assay type: in vivo; settings: for Rotarod score (fall latency normalized to day 1), mean value: I.V. daily, FIG. 15
Experimental: The Rotarod test was performed on the 1, 3, 7, 14, and 21 days after 45 minutes-MCAO (middle cerebral artery occlusion)-reperfusion modelling to induced ischemia (Brain Stroke). […] The animal was carefully placed on a rotating rod (JD-A-07RA5, BS Technolab Inc., Korea) and the time (second) that animal was fallen was measured. The speed of rotating rod was increased from 4 rpm to 40 rpm for 300 second. […] For rotarod latency test, Nested one-way ANOVA and Two-way ANOVA was used to analyze significance between the groups on each day. Statistical analysis was performed using Prism 9 (GraphPad Software Inc., San Diego, CA, USA) and statistical significance was set at a P-value of less than 0.05.

[4] = test system: PSD-95; assay: PSD-95 expression (western blot) in primary cultured neurons; assay type: cell-based, mice; settings: mouse primary neuro-glia culture, 4 days treatment, β-actin normalized; FIG. 14B
Experimental: as §1

[5] = test system: microglia cells (BV2); assay: NO assay (Griess reagent) in LPS-treated BV2 microglial cells; assay type: cell-based; settings: donepezil HCl alone, antioxidant alone or combination, FIG. 8
Experimental: (§2) Briefly, BV2 microglial cells were plated in 96-well plates at 2×10^5 cells/well in DMEM high glucose medium (Welgene, LM001-05) supplemented with 10% fetal bovine serum (FBS; YOUNG IN, US-FBS-500) and 1% penicillin-streptomycin (P-S; Gibco, 15070063).
After incubation, NO levels were quantified from half of the cell media using a Griess reagent assay kit (Promega, G2930). Colorimetric changes in the media and Griess reagent mixture were measured using a Synergy HTX Multi-Mode reader (Biotek) at 540 nm. All data were analyzed using the GraphPad Prism 9 software. Statistical significance was assessed using a one-way ANOVA or two-way ANOVA followed by Dunnett's post-hoc analysis unless otherwise noted. All data are presented as the mean±SEM, and significance was set at P<0.05. […] (*P<0.05, **P<0.01, ***P<0.001, ****P<0.0001, one-way ANOVA).

[6] = test system: EPO; assay: EPO expression in brain (western blot), MCAO-reperfusion model; assay type: in vivo, Sprague-Dawley rats; settings: 21 days after MCAO
Experimental: Brains were homogenized in lysate buffer with protease inhibitor cocktail on ice. […] Protein concentration was measured using DC (Bio-rad, #5000112) protein assay. Samples were loaded using the SDS-PAGE system (Bio-rad, #1658004 and #1645052) and transferred onto nitrocellulose membranes (Bio-rad, #17001917 and #1704272). The membranes were blocked for 1 hour at room temperature with Tris-buffered saline-Tween20 (TBS-T) containing 5% skim milk and then incubated with pAKT antibody (Cell signaling, #4060), AKT primary antibody (Santacruz, SC-81434), EPO primary antibody (SCBT, SC-5290), ERK (CST, #9102), pERK (CST, #9101) and GAPDH (Bioworld, #MBOO1H) in 5% skim milk overnight at 4° C. Next day, the membranes were washed 3 times in TBS-T for 5 minutes, incubated with horseradish peroxidase-conjugated (HRP-conjugated) secondary antibody or fluorescence conjugated secondary antibody for 1-2 hours, and then washed 3 times in TBS-T for 5 minutes again. After final wash, the membranes were developed for chemiluminescence or fluorescence system. The signals of chemiluminescence or fluorescence were acquired and quantified by using ECL solution (Bio-rad, #1705062), iBright 1500 (Invitrogen, #CL1500), and Odyssey CLx (LI-COR, #CLX-2383) imaging system.

[7] = test system: PI3K-AKT pathway; assay: pAKT expression in brain (western blot), MCAO-reperfusion model; assay type: in vivo, Sprague-Dawley rats
Experimental: (§3) At 21 days after 45-minutes-MCAO-reperfusion modeling, brains were collected to perform a western blot assay. Brains were homogenized in lysate buffer with protease inhibitor cocktail on ice. Each sample was centrifuged at 13,000 rpm and 4° C. for 30 minutes and the supernatant was used for further experiments. Protein concentration was measured using DC (Bio-rad, #5000112) protein assay. Samples were loaded using the SDS-PAGE system (Bio-rad, #1658004 and #1645052) and transferred onto nitrocellulose membranes (Bio-rad, #17001917 and #1704272). The membranes were blocked for 1 hour at room temperature with Tris-buffered saline-Tween20 (TBS-T) containing 5% skim milk and then incubated with pAKT antibody (Cell signaling, #4060), AKT primary antibody (Santacruz, SC-81434), EPO primary antibody (SCBT, SC-5290), ERK (CST, #9102), pERK (CST, #9101) and GAPDH (Bioworld, #MBOO1H) in 5% skim milk overnight at 4° C. Next day, the membranes were washed 3 times in TBS-T for 5 minutes, incubated with horseradish peroxidase-conjugated (HRP-conjugated) secondary antibody or fluorescence conjugated secondary antibody for 1-2 hours, and then washed 3 times in TBS-T for 5 minutes again. After final wash, the membranes were developed for chemiluminescence or fluorescence system. The signals of chemiluminescence or fluorescence were acquired and quantified by using ECL solution (Bio-rad, #1705062), iBright 1500 (Invitrogen, #CL1500), and Odyssey CLx (LI-COR, #CLX-2383) imaging system.

[8] = test system: ReN VM-immortalized cells, human neural progenitor cell line; assay: HB9 motor neuron marker expression in neural progenitor cells (differentiation); assay type: cell-based; settings: alone or combined, 3 days
Experimental: ReN VM-immortalized cells, human neural progenitor cell line, were used (EMD Millipore, SCC008). These neural progenitor cells can differentiate into motor neurons and glial cells. The degree of differentiation of neural progenitor cells into motor neurons was determined by analysing the level of HB9, a specific motor neuron marker. ReN VM cells were cultured on laminin (Corning, 354232)-coated 75T Flask in the growth medium, which is DMEM/F12 (Welgene, #LM002-08) supplemented with 20 ng/ml basic fibroblast growth factor (bFGF; Gibco, 15750-060), 20 ng/ml epidermal growth factor (EGF; Sigma, E9644), serum-free B27 (Gibco, 17504-044), 10 KU heparin (Sigma, H3393), and 1% gentamicin (Gibco, 17504-044). Cells were plated in 96-well plates at 7000 cells/well in the growth media in a 37° C./5% CO2 incubator for 3 days. […] Immunostaining was performed against HB9, a specific motor neuronal marker, to assess the population of motor neurons. Briefly, drug-treated ReN VM cells were fixed in 10% formalin solution for 20 minutes and permeabilized in 0.1% TritonX-100. […] Fluorescence intensity levels were measured using an Odyssey® DLx Infrared Imaging System (LI-COR, CLS-2383). All data were analyzed using the GraphPad Prism 9 software. Statistical significance was assessed using a one-way ANOVA or two-way ANOVA followed by Dunnett's post-hoc analysis unless otherwise noted. […]

[9] = test system: ERK pathway; assay: pERK expression in brain (western blot), MCAO-reperfusion model; assay type: in vivo, Sprague-Dawley rats
Experimental: as §3

[10] = test system: IL-6; assay: IL-6 ELISA in LPS-treated BV2 microglial cells; assay type: cell-based, mouse; settings: BV2, 1 μg/ml LPS, 18 hours; FIG. 4
Experimental: as §2

[11] = test system: neural progenitor cells; assay: Number of viable cells (cytotoxicity) in neural progenitor cells; settings: with donepezil, NAC or their combination; FIG. 13B
[12] = 1 mpk donepezil HCl or 120 mpk NAC used alone, FIG. 17
[13] = brain, 21 days after MCAO, 1 mpk donepezil HCl, 120 mpk NAC, alone or combined

| Structure (SMILES) | pCREB expression, mean value normalized to untreated control (CTL 1.0) [1] | ROS, mean value normalized to control (CTL 100%) [2] | Rotarod score normalized to VEH (100%) ([3]; day 3 after MCAO) | Rotarod score (fall latency normalized to day 1), mean value ([3]; day 3 after MCAO) | Rotarod score (fall latency normalized to day 1), mean value ([3]; day 7 after MCAO) | Rotarod score normalized to VEH (100%) ([3]; day 14 after MCAO) | Rotarod score (fall latency normalized to day 1), mean value ([3]; day 14 after MCAO) | Rotarod score normalized to VEH (100%) ([3]; day 21 after MCAO) | Rotarod score (fall latency normalized to day 1), mean value ([3]; day 21 after MCAO) | PSD-95 expression, mean value normalized to untreated control (CTL 1.0) [4] | NO, mean value relative to LPS (100%) [5] | also measured |
| --- | --- | --- | --- | --- | --- | --- | --- | --- | --- | --- | --- | --- |
| COc1cc2c(cc1OC)C(=O)C(CC1CCN(Cc3ccccc3)CC1)C2 (stereo not shown) [Donepezil-HCl, donepezil] | 0.92 | 76.52% | 93.92% | 15.77 | 30.61 | 81.08% | 39.30 | 77.68% | 49.53 | 1.20 | – | – |
| COc1ccc([C@H]2OC[C@H]3[C@@H]2CO[C@H]3c2ccc(O[C@@H]3O[C@H](CO)[C@@H](O)[C@H](O)[C@H]3O)c(OC)c2)cc1OC [Forsythin] | – | – | – | – | – | – | – | – | – | – | 89.97% | – |
| CC(=O)N[C@@H](CS)C(=O)O [NAC, N-acetylcysteine] | 1.13 | 88.93% | 139.30% | 23.39 | 38.01 | 83.86% | 40.65 | 44.96% | 28.67 | 1.43 | – | EPO expression normalized to VEH (100%) [6]: 151.66%; EPO expression, mean value ([6]; FIG. 18): 172.43; activation of the PI3K-AKT pathway [7, 12]: did not activate; pAKT expression normalized to VEH (100%) [7, 13]: 55.88%; pAKT expression, mean value ([7]; brain, 21 days after MCAO, 1 mpk donepezil HCl, 120 mpk NAC, alone or combined, FIG. 17A): 44.23; HB9 expression level, mean value relative to CTL (100%) ([8]; donepezil 0.1 μM, NAC 12 μM, FIG. 9A): 116.9%; HB9 expression level, mean value relative to CTL (100%) ([8]; donepezil 1 μM, NAC 120 μM, FIG. 9B): 125.36%; activation of the ERK pathway [9, 12]: did not activate; pERK expression normalized to VEH (100%) [9, 13]: 189.77%; pERK expression, mean value ([9]; brain, 21 days after MCAO, 1 mpk donepezil HCl, 120 mpk NAC, alone or combined, FIG. 17B): 99.50; IL-6, mean value relative to LPS (100%) [10]: 95.48% |
| O=C(O)CCCCC1CCSS1 (stereo not shown) [Thioctic acid] | – | – | – | – | – | – | – | – | – | – | 68.45% | – |
| CO[C@H]1C[C@@H]2CC[C@@H](C)[C@@](O)(O2)C(=O)C(=O)N2CCCC[C@H]2C(=O)O[C@H]([C@H](C)C[C@@H]2CC[C@@H](O)[C@H](OC)C2)CC(=O)[C@H](C)/C=C(\C)[C@@H](O)[C@@H](OC)C(=O)[C@H](C)C[C@H](C)/C=C/C=C/C=C/1C [rapamycin] | – | – | – | – | – | – | – | – | – | – | – | cytotoxicity on addition of rapamycin [11]: did not induce cytotoxicity |
